Measurements as given in patent US8574608B2, “Bactericidal silver surfactant delivery into coating and polymer compositions” (Eastern Michigan Universtity, priority 2007, dated 2013).
Like-named read-outs stand apart in the source and are kept apart here.

Tests used:
[1] = system: Gram-positive bacteria; format: cell-based
[2] = system: Candida tropicalis; format: cell-based
[3] = system: Staphylococcus aureus; assay: Growth on agar plates containing sodium surfactant; format: cell-based; note: test concentration or dose not given here
[4] = system: Streptococcus viridans; assay: Growth on agar plates containing sodium surfactant; format: cell-based
[5] = system: Staphylococcus epidermidis; assay: Growth on agar plates containing sodium surfactant; format: cell-based
[6] = system: Enterococcus fecalis; assay: Growth on agar plates containing sodium surfactant; format: cell-based; note: test concentration or dose not given here
[7] = system: Streptococcus pyogenes; assay: Growth on agar plates containing sodium surfactant; format: cell-based
[8] = system: B. subtilis; format: cell-based, Bacillus subtilis
[9] = system: Gram-negative bacteria; format: cell-based
[10] = system: S. aureus; format: cell-based, Staphylococcus aureus
[11] = system: Micrococcus luteus; assay: Growth on agar plates containing sodium surfactant; format: cell-based
[12] = system: Bacillus subtilis; assay: Growth on agar plates containing sodium surfactant; format: cell-based; note: test concentration or dose not given here
[13] = system: Streptococcus agalactiae; assay: Growth on agar plates containing sodium surfactant; format: cell-based; note: test concentration or dose not given here
[14] = system: Streptococcus bovis; assay: Growth on agar plates containing sodium surfactant; format: cell-based
[15] = system: Streptococcus pneumoniae; format: cell-based
[16] = agar plates with sodium surfactant, strain ATCC6538, replicates 1-2 or 1-3
[17] = agar plates with sodium surfactant, strain EM24/ATCC25923, replicates 1-2 or 1-3
[18] = agar plates with sodium surfactant, strain EM8, replicates 1-2 or 1-3
[19] = agar plates with sodium surfactant, strain EM3/ATCC12228, replicates 1-2 or 1-3
[20] = agar plates with sodium surfactant, strain EM19, first line, replicates 1-2 or 1-3
[21] = agar plates with sodium surfactant, strain EM19, second line, replicates 1-2 or 1-3
[22] = agar plates with sodium surfactant, strain EM14, replicates 1-2 or 1-3
[23] = agar plates with sodium surfactant, strain EM17, replicates 1-2 or 1-3
[24] = agar plates with sodium surfactant, strain ATCC33, replicates 1-2 or 1-3
[25] = agar plates with sodium surfactant, strain EM27, replicates 1-2 or 1-3
[26] = agar plates with sodium surfactant, strain EM13, replicates 1-2 or 1-3
[27] = agar plates with sodium surfactant, strain EM12, replicates 1-2 or 1-3

| Compound | Survival: No Growth/Full Growth [3] | Survival: No Growth/Full Growth [4] | Survival: No Growth/Full Growth [5] | Survival: No Growth/Full Growth [6] | Survival: No Growth/Full Growth [7] | Survival: No Growth/Full Growth [11] | Survival: No Growth/Full Growth [12] | Survival: No Growth/Full Growth [13] | Survival: No Growth/Full Growth [14] | Survival: No Growth/Full Growth [3, 16] | Survival: No Growth/Full Growth [3, 17] | Survival: No Growth/Full Growth [4, 18] | Survival: No Growth/Full Growth [5, 19] | Survival: No Growth/Full Growth [6, 20] | Survival: No Growth/Full Growth [6, 21] | Survival: No Growth/Full Growth [7, 22] | Survival: No Growth/Full Growth [11, 23] | Survival: No Growth/Full Growth [12, 24] | Survival: No Growth/Full Growth [12, 25] | Survival: No Growth/Full Growth [13, 26] | also measured |
| --- | --- | --- | --- | --- | --- | --- | --- | --- | --- | --- | --- | --- | --- | --- | --- | --- | --- | --- | --- | --- | --- |
| CCCCC(CC)COC(=O)CC(C(=O)OCC(CC)CCCC)S(=O)(=O)[O-].[Na+] (stereo not shown) [sodium bis[2-ethylhexyl]sulfosuccinate] | − | − | − | − | − | − | − | − | − |  |  |  |  |  |  |  |  |  |  |  | effect on all Gram-positive bacteria tested [1]: killed; Survival: No Growth/Full Growth [2]: −; effect on the yeast Candida tropicalis [2]: killed; killing of B. subtilis [8]: killed all; response of Gram-negative bacteria [9]: resistant; killing of S. aureus [10]: killed all; Survival: No Growth/Full Growth [15]: − |
| CCCCC(CC)COP(=O)([O-])OCCC(CC)CCC.[Na+] (stereo not shown) [Compound S2] |  |  |  |  |  |  |  |  |  | − | − | − | − | − | − | − | − | − | − | − | Survival: No Growth/Full Growth [14, 27]: − |
| CCCCC(CC)COC(=O)CC(C(=O)OCC(CC)CCCC)S(=O)(=O)[O-].[Na+] (stereo not shown) [Compound S1] |  |  |  |  |  |  |  |  |  | − | − | − | − | − | − | − | − | − | − | − | Survival: No Growth/Full Growth [14, 27]: − |
| CCCCCCCCCCCCCOC(=O)CC(C(=O)OCCCCCCCCCCCCC)S(=O)(=O)[O-].[Na+] (stereo not shown) [Compound S6] | + | + | + | + | − | + and − | − and + | − and + | − |  |  |  |  |  |  |  |  |  |  |  |  |
